Laboratory results from article PMC8434884 (Journal of medicinal chemistry, 2020).

Assays:
[1] = biological target: T1, human 5-HT2CR (unedited INI isoform) (Homo sapiens, UniProt P28335); details: 1 nM, 5-HT-induced Cai2+ release, h5-HT2CR-CHO cells
T1 sequence (P28335 33-458): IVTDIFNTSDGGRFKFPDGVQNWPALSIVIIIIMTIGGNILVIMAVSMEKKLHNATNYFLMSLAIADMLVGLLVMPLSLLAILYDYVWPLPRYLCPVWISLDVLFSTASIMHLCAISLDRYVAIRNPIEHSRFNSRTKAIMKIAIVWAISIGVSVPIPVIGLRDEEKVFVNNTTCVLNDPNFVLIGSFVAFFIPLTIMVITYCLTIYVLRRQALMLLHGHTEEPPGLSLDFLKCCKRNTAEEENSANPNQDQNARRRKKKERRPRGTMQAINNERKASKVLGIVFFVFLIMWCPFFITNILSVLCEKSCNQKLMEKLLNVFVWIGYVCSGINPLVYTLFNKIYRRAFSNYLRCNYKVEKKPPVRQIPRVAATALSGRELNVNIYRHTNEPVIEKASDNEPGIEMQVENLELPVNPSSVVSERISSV

[2] = biological target: T1, human 5-HT2CR (unedited INI isoform); details: cited from earlier work
rats [3] = details: cited from earlier work
α 2A = biological target: T2, α 2A (Homo sapiens, UniProt P08913); details: 10 μM; cited from earlier work
T2 sequence (P08913 1-465): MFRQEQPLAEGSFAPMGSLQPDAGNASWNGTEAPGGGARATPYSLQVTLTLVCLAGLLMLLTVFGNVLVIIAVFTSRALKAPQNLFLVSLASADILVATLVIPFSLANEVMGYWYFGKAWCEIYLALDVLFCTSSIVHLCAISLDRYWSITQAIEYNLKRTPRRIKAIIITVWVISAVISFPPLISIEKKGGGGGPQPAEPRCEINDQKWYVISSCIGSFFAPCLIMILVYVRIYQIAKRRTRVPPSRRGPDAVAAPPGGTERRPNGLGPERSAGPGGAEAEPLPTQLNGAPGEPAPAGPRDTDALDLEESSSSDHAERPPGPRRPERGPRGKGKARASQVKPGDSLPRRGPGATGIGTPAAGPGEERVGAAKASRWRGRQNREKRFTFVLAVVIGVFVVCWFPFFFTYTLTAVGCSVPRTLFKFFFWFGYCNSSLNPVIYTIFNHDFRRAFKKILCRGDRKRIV

DAT = DAT (Homo sapiens, UniProt Q01959); details: 10 μM; cited from earlier work
DAT, sequence (Q01959 whole entry): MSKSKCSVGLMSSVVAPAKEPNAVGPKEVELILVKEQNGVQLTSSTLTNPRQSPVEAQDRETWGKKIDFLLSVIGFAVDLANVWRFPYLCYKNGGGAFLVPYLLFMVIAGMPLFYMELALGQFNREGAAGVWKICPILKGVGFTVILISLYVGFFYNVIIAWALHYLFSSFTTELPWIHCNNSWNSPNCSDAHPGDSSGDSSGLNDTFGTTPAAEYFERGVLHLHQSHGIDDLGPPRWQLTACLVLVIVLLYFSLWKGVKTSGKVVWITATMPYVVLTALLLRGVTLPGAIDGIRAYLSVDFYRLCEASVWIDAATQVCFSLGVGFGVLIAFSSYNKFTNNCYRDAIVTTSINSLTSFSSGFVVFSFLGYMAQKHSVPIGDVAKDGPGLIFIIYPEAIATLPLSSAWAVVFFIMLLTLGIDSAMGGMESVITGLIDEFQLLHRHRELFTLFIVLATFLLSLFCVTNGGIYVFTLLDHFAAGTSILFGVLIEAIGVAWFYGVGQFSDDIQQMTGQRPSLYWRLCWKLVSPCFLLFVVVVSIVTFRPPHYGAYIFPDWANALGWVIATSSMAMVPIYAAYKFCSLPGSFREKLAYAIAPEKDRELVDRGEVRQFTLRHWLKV

α 2B = biological target: T3, α 2B (Homo sapiens, UniProt P18089); details: 10 μM; cited from earlier work
T3 sequence (P18089 1-450): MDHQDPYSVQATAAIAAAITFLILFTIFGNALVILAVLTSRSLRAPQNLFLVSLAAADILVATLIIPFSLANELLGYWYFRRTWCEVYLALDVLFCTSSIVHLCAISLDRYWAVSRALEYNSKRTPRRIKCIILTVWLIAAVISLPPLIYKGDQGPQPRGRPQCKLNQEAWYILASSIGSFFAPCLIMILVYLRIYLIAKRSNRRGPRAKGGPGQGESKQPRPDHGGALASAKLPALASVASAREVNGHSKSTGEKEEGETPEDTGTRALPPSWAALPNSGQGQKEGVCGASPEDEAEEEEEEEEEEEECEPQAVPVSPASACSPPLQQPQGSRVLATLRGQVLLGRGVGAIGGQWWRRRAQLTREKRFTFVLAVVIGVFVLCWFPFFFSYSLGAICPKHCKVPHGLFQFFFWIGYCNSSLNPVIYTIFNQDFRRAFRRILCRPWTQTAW

D3 = D3 (Homo sapiens, UniProt P35462); details: 10 μM; cited from earlier work
D3, sequence (P35462 whole entry): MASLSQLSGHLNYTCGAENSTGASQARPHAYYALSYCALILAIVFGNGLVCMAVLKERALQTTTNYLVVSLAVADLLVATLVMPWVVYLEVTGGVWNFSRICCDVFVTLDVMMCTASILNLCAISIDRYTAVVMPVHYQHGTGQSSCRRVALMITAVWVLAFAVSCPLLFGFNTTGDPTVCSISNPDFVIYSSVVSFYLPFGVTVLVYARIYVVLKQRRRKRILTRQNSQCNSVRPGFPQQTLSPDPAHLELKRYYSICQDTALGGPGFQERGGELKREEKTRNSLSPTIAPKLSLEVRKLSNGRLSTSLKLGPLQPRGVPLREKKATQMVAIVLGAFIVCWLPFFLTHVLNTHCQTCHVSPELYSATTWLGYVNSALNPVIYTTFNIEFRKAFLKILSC

rats [4] = details: cited from earlier work; remark: listed apart in the source
male Sprague–Dawley rats [5] = assay: WAY163909 versus saline two-lever drug discrimination assay; format: in vivo, rat
male Sprague–Dawley rats [6] = details: previous study; cited from earlier work

O=C(NC(CO)CO)[C@@H]1C[C@H](c2ccccc2)CCN1 (racemic) [Compound 14, (2,4-cis)-N-(1,3-Dihydroxypropan-2-yl)-4-phenylpiperidine-2-carboxamide]
5-HT2CR positive allosteric modulator activity (in words) [1]: did promote PAM activity

O=C(NC(CO)CO)[C@@H]1C[C@H](C2CCCCC2)CCN1 (racemic) [Compound 15, (2,4-cis)-4-Cyclohexyl-N-(1,3-dihydroxypropan-2-yl)piperidine-2-carboxamide]
5-HT2CR positive allosteric modulator activity (in words) [1]: did not result in positive allosteric effects

O=C(NCCN1CCOCC1)[C@@H]1C[C@H](c2ccccc2)CCN1 (racemic) [Compound 16, (2,4-cis)-N-(2-Morpholinoethyl)-4-phenylpiperidine-2-carboxamide]
5-HT2CR positive allosteric modulator activity (in words) [1]: did not result in positive allosteric effects

O=C(NCCN1CCOCC1)[C@@H]1C[C@H](C2CCCCC2)CCN1 (racemic) [Compound 17, (2,4-cis)-4-Cyclohexyl-N-(2-morpholinoethyl)piperidine-2-carboxamide]
5-HT2CR positive allosteric modulator activity (in words) [1]: did not result in positive allosteric effects

O=C(NCCN1CCOCC1)[C@@H]1C[C@H](CCC2CCCCC2)CCN1 (racemic) [Compound 34, (2,4-cis)-4-(2-Cyclohexylethyl)-N-(2-morpholinoethyl)piperidine-2-carboxamide]
5-HT2CR positive allosteric modulator activity (in words) [1]: did not produce PAM effects

O=C(NCCCN1CCOCC1)[C@@H]1C[C@H](CCC2CCCCC2)CCN1 (racemic) [Compound 35, (2,4-cis)-4-(2-Cyclohexylethyl)-N-(3-morpholinopropyl)-piperidine-2-carboxamide]
5-HT2CR positive allosteric modulator activity (in words) [1]: did produce PAM effects

O=C(NCCN1CCOCC1)[C@@H]1C[C@H](CCc2ccccc2)CCN1 (racemic) [Compound 36, (2,4-cis)-N-(2-Morpholinoethyl)-4-phenethylpiperidine-2-carboxamide]
5-HT2CR positive allosteric modulator activity (in words) [1]: did not produce PAM effects

O=C(NCCCN1CCOCC1)[C@@H]1C[C@H](CCc2ccccc2)CCN1 (racemic) [Compound 37, (2,4-cis)-N-(3-Morpholinopropyl)-4-phenethylpiperidine-2-carboxamide]
5-HT2CR positive allosteric modulator activity (in words) [1]: did produce PAM effects

O=C(NC(CO)C(O)c1ccccc1)C1C[C@@H](c2ccccc2)CCN1 (stereo in doubt) [Compound (2R,4S)-11, (2S,4S)-N-((1S,2S)-1,3-Dihydroxy-1-phenylpropan-2-yl)-4-phenylpiperidine-2-carboxamide]
5-HT2CR positive allosteric modulator activity (in words) [1]: modest allosteric activity

CCCCCCCCCCC[C@@H]1CCN[C@H](C(=O)N[C@@H]([C@H]2O[C@H](SC)[C@H](O)[C@@H](O)[C@H]2O)[C@H](C)Cl)C1.Cl [Compound 1]
shift of the 5-HT-evoked Cai2+ response curve ([2]; titration studies): evoked a leftward shift

CCCCCCCCCCC[C@@H]1CCN[C@H](C(=O)NCC(O)CO)C1 (stereo partly drawn) [Compound 3]
effect on locomotor activity (rats [3]): decrease locomotor activity | Emax RFU (% 5-HT) ([2]; compound 1 nM, 5-HT-induced Cai2+ release, h5-HT2CR-CHO cells): 123.2 ± 4.1 % 5-HT | effect on Cai2+ release in the absence of 5-HT ([2]; h5-HT2CR-CHO cells): no effect on Cai^2+ release | inhibition of radioligand binding (α 2A): 85.1% | inhibition of radioligand binding (DAT): 66.3% | inhibition of radioligand binding (α 2B): 80.7% | inhibition of radioligand binding (D3): 71.7% | effect on cocaine-seeking during abstinence from cocaine self-administration (rats [4]): suppress cocaine-seeking

Cc1cc2c(cc1Cl)N(C(=O)Nc1ccc(Oc3cccnc3C)nc1)CC2.Cl.Cl [SB242084, 6-chloro-5-methyl-1-[[2-(2-methylpyrid-3-yloxy)pyrid-5-yl]carbamoyl]indoline dihydrochloride, reference compound]
blockade of substitution of 12 (2 mg/kg) plus WAY163909 (0.5 mg/kg) (male Sprague–Dawley rats [5]; SB242084 0.5 mg/kg pretreatment, 13/13 rats): completely prevented the substitution

c1cc2c3c(c1)[C@H]1CCC[C@H]1N3CCNC2 [WAY163909, (7b-R,10a-R)-1,2,3,4,8,9,10,10a-octahydro-7bH-cyclopenta[b][1,4] diazepino[6,7,1hi]indole, reference compound]
dose predicted to result in 50% drug-associated responses (ED50) (male Sprague–Dawley rats [6]): 0.53 mg/kg | percentage of rats selecting the WAY163909-associated lever (male Sprague–Dawley rats [5]; WAY163909 0.125 mg/kg ip, substitution test, n = 13): 0%
